ChEMBL document CHEMBL5614421, “Structure-activity relationship study of Pseudellone C as anti-glioma agents by targeting TNF/TNFR signaling pathway” (Eur J Med Chem, 2024)
The source made the active and inactive calls. The calls are words filed in the database; no cut-off is given here.

Experiments:
[1] = system: U-87 MG; test: Induction of apoptosis in human U-87 MG cells assessed as late apoptotic cells at 20 uM incubated for 24 hrs by Annexin V-APC/7-AAD staining based flow cytometric analysis (reference value: 3.44 %); type: functional, U-87MG ATCC
[2] = system: LN-229; test: Induction of apoptosis in human LN-229 cells assessed as viable cells at 10 uM incubated for 24 hrs by Annexin V-APC/7-AAD staining based flow cytometric analysis (reference value: 95.4 %); type: functional; conditions: read-out: Activity
[3] = system: LN-229; test: Induction of apoptosis in human LN-229 cells assessed as late apoptotic cells at 20 uM incubated for 12 hrs by Annexin V-APC/7-AAD staining based flow cytometric analysis (reference value: 5.1 %); type: functional
[4] = system: LN-229; test: Antiproliferative activity against human LN-229 cells assessed as inhibition of cell growth incubated for 68 hrs by CCK-8 assay; type: functional, cell-based; conditions: LN-229, 68 h
[5] = system: LN-229; test: Induction of apoptosis in human LN-229 cells assessed as necrotic cells at 20 uM incubated for 24 hrs by Annexin V-APC/7-AAD staining based flow cytometric analysis (reference value: 0.56 %); type: functional
[6] = system: LN-229; test: Induction of apoptosis in human LN-229 cells assessed as early apoptotic cells at 5 uM incubated for 24 hrs by Annexin V-APC/7-AAD staining based flow cytometric analysis (reference value: 0.45 %); type: functional
[7] = system: LN-229; test: Induction of apoptosis in human LN-229 cells assessed as early apoptotic cells at 20 uM incubated for 24 hrs by Annexin V-APC/7-AAD staining based flow cytometric analysis (reference value: 0.91 %); type: functional
[8] = system: U-87 MG; test: Induction of apoptosis in human U-87 MG cells assessed as viable cells at 20 uM incubated for 24 hrs by Annexin V-APC/7-AAD staining based flow cytometric analysis (reference value: 85 %); type: functional, U-87MG ATCC; conditions: read-out: Activity
[9] = system: LN-229; test: Induction of apoptosis in human LN-229 cells assessed as early apoptotic cells at 20 uM incubated for 24 hrs in presence of R7050 by Annexin V-APC/7-AAD staining based flow cytometric analysis (reference value: 0.91 %); type: functional
[10] = system: LN-229; test: Induction of apoptosis in human LN-229 cells at 20 uM incubated for 24 hrs in presence of R7050 by Annexin V-APC/7-AAD staining based flow cytometric analysis relative to control; type: functional
[11] = system: U-87 MG; test: Induction of apoptosis in human U-87 MG cells at 20 uM incubated for 24 hrs by Annexin V-APC/7-AAD staining based flow cytometric analysis (reference value: 5.67 +/- 1.49 %); type: functional, U-87MG ATCC
[12] = system: U-87 MG; test: Induction of apoptosis in human U-87 MG cells assessed as early apoptotic cells at 20 uM incubated for 24 hrs by Annexin V-APC/7-AAD staining based flow cytometric analysis (reference value: 3.44 %); type: functional, U-87MG ATCC
[13] = system: U-87 MG; test: Induction of apoptosis in human U-87 MG cells assessed as necrotic cells at 10 uM incubated for 24 hrs by Annexin V-APC/7-AAD staining based flow cytometric analysis (reference value: 0.21 %); type: functional, U-87MG ATCC
[14] = system: LN-229; test: Induction of apoptosis in human LN-229 cells assessed as viable cells at 20 uM incubated for 48 hrs by Annexin V-APC/7-AAD staining based flow cytometric analysis (reference value: 91.7 %); type: functional; conditions: read-out: Activity
[15] = system: U-87 MG; test: Induction of apoptosis in human U-87 MG cells assessed as viable cells at 20 uM incubated for 12 hrs by Annexin V-APC/7-AAD staining based flow cytometric analysis (reference value: 94.6 %); type: functional, U-87MG ATCC; conditions: read-out: Activity
[16] = system: U-87 MG; test: Induction of apoptosis in human U-87 MG cells at 10 uM incubated for 48 hrs by Annexin V-APC/7-AAD staining based flow cytometric analysis (reference value: 5.43 +/- 0.54 %); type: functional, U-87MG ATCC
[17] = system: LN-229; test: Induction of apoptosis in human LN-229 cells assessed as late apoptotic cells at 5 uM incubated for 24 hrs by Annexin V-APC/7-AAD staining based flow cytometric analysis (reference value: 3.56 %); type: functional
[18] = system: LN-229; test: Induction of apoptosis in human LN-229 cells at 10 uM incubated for 48 hrs by Annexin V-APC/7-AAD staining based flow cytometric analysis (reference value: 7.32 +/- 0.71 %); type: functional
[19] = Drug concentration in C57BL/6J mouse brain at 9 mg/kg,iv administration measured after 30 mins by LC-MS analysis; type: ADME, organism-based; conditions: read-out: Ct
[20] = system: U-87 MG; test: Induction of apoptosis in human U-87 MG cells assessed as late apoptotic cells at 20 uM incubated for 24 hrs by Annexin V-APC/7-AAD staining based flow cytometric analysis (reference value: 7.7 %); type: functional, U-87MG ATCC
[21] = system: U-87 MG; test: Induction of apoptosis in human U-87 MG cells assessed as necrotic cells at 20 uM incubated for 24 hrs by Annexin V-APC/7-AAD staining based flow cytometric analysis (reference value: 1 %); type: functional, U-87MG ATCC
[22] = system: LN-229; test: Induction of apoptosis in human LN-229 cells assessed as viable cells at 20 uM incubated for 24 hrs by Annexin V-APC/7-AAD staining based flow cytometric analysis (reference value: 91.7 %); type: functional; conditions: read-out: Activity
[23] = system: U-87 MG; test: Induction of apoptosis in human U-87 MG cells assessed as upregulation of TNF-alpha gene expression incubated for 24 hrs by transcriptome sequencing analysis; type: functional, cell-based; conditions: U-87MG ATCC
[24] = system: LN-229; test: Induction of apoptosis in human LN-229 cells assessed as necrotic cells at 5 uM incubated for 24 hrs by Annexin V-APC/7-AAD staining based flow cytometric analysis (reference value: 0.56 %); type: functional
[25] = system: LN-229; test: Induction of apoptosis in human LN-229 cells assessed as viable cells at 5 uM incubated for 24 hrs by Annexin V-APC/7-AAD staining based flow cytometric analysis (reference value: 95.4 %); type: functional; conditions: read-out: Activity
[26] = system: LN-229; test: Induction of apoptosis in human LN-229 cells assessed as necrotic cells at 10 uM incubated for 24 hrs by Annexin V-APC/7-AAD staining based flow cytometric analysis (reference value: 0.56 %); type: functional
[27] = system: U-87 MG; test: Induction of apoptosis in human U-87 MG cells assessed as early apoptotic cells at 5 uM incubated for 24 hrs by Annexin V-APC/7-AAD staining based flow cytometric analysis (reference value: 1.59 %); type: functional, U-87MG ATCC
[28] = system: LN-229; test: Induction of apoptosis in human LN-229 cells assessed as early apoptotic cells at 20 uM incubated for 24 hrs by Annexin V-APC/7-AAD staining based flow cytometric analysis (reference value: 0.45 %); type: functional
[29] = system: LN-229; test: Induction of apoptosis in human LN-229 cells assessed as necrotic cells at 20 uM incubated for 48 hrs by Annexin V-APC/7-AAD staining based flow cytometric analysis (reference value: 0.7 %); type: functional
[30] = system: U-87 MG; test: Induction of apoptosis in human U-87 MG cells assessed as late apoptotic cells at 20 uM incubated for 24 hrs in presence of R7050 by Annexin V-APC/7-AAD staining based flow cytometric analysis (reference value: 7.7 %); type: functional, U-87MG ATCC
[31] = system: LN-229; test: Induction of apoptosis in human LN-229 cells assessed as late apoptotic cells at 10 uM incubated for 24 hrs by Annexin V-APC/7-AAD staining based flow cytometric analysis (reference value: 3.56 %); type: functional
[32] = system: LN-229; test: Induction of apoptosis in human LN-229 cells assessed as necrotic cells at 20 uM incubated for 12 hrs by Annexin V-APC/7-AAD staining based flow cytometric analysis (reference value: 0.7 %); type: functional

concentration at 0.5 h [19]: 241 ng/g
Structure (SMILES): CCCCCCCNC(=O)[C@H](Cc1c[nH]c2ccccc12)NC(=O)C(C)(c1c[nH]c2ccccc12)c1c[nH]c2ccccc12
Activity [1]: 4.03%
viability at 10 µM [2]: 88.1%
Activity [3]: 4.06%
IC50 [4]: 10.8 µM
Activity [5]: 1.42%
Activity [6]: 0.82%
Activity [7]: 24.2%
viability at 20 µM [8]: 65.1%
Activity [9]: 1.48%
Activity [10]: 22.79%
Activity [11]: 13.95%
Activity [12]: 16.8%
Activity [13]: 0.21%
viability at 20 µM [14]: 37.7%
viability at 20 µM [15]: 93.8%
Activity [16]: 17.37%
Activity [17]: 3.7%
Activity [18]: 61.42%
Activity [20]: 10%
Activity [21]: 1.37%
viability at 20 µM [22]: 81.7%
Activity [23]: Active
Activity [24]: 0.46%
viability at 5 µM [25]: 95%
Activity [26]: 1.95%
Activity [27]: 2.06%
Activity [28]: 13.8%
Activity [29]: 1.9%
Activity [30]: 2.87%
Activity [31]: 6.38%
Activity [32]: 1.45%
